Legend:
AM microtissues [1] = test system: AM microtissues
AM microtissues [2] = experiment: Effect of ROCK inhibitor on AM cyst formation; format: cell-based, human; conditions: 10 μM
[3] = day 0 to day 3, control: Y27632 removed at day 1

Row | Structure (SMILES) | toxicity on the AM development (dose-response, in words) (AM microtissues [1]) | cyst morphology (AM microtissues [2]; day 0 to day 3) | lumens per cyst (EZRIN immunostaining) (AM microtissues [2]; day 0 to day 3, control has a single central lumen) | average normalized nuclear intensity of GATA3 vs untreated control (AM microtissues [2]; [3]) | average normalized nuclear intensity of TFAP2A vs untreated control (AM microtissues [2]; [3]) | average normalized nuclear intensity of TFAP2B vs untreated control (AM microtissues [2]; [3])
1 | COc1cccc2c1C(=O)c1c(O)c3c(c(O)c1C2=O)C[C@@](O)(C(=O)CO)C[C@@H]3O[C@H]1C[C@H](N)[C@H](O)[C@H](C)O1 [Doxorubicin] | induces massive cell death shortly after treatment | – | – | – | – | –
2 | C[C@@H](N)[C@H]1CC[C@H](C(=O)Nc2ccncc2)CC1 [Y27632] | – | flattened and collapsed morphology without a visible single, central lumen | multiple EZRIN+ lumens | no significant differences | no significant differences | no significant differences
